According to article PMC7983974 (Basic & Clinical Pharmacology & Toxicology, 2020):
Values joined by “and” are separate entries in the source; they are usually repeats but may differ in a detail not shown here. Equal entries are not always repeated. Where two headings read alike, the source gives them in different places.

Experiments:
[1] = tested on: molidustat glucuronidation (clearance); assay: In vitro-in vivo scaling: predicted increase in molidustat AUC; parameters: species or system human; details: based on mass balance study, no differentiation UGT1A1/UGT1A9
UGT2B7 = molecular target: T1, UGT2B7 (Homo sapiens, UniProt P16662); assay: M1 formation from molidustat by recombinant UGT2B7; type: in vitro ADME; details: 1 and 10 µmol L^−1
T1 sequence (P16662 24-529): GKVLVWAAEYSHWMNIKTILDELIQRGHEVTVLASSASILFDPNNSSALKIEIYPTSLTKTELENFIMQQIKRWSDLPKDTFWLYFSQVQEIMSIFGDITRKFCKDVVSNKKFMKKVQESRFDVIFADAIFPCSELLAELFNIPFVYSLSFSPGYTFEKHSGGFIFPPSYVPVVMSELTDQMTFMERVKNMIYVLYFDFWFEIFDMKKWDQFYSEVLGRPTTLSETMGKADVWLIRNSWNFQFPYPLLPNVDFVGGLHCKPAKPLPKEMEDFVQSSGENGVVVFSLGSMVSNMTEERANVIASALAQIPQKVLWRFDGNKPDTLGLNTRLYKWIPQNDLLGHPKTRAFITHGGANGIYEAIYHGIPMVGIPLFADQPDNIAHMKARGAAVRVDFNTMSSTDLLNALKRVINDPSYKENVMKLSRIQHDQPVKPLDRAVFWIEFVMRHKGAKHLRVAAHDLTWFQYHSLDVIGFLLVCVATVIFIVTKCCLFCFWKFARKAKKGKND

EPO = assay: Clinical DDI study: pharmacodynamics, serum erythropoietin; type: in vivo, human; details: N 13
UGT1A6 = molecular target: T2, UGT1A6 (Homo sapiens, UniProt P19224); assay: M1 formation from molidustat by recombinant UGT1A6; type: in vitro ADME; details: 1 and 10 µmol L^−1
T2 sequence (P19224 27-532): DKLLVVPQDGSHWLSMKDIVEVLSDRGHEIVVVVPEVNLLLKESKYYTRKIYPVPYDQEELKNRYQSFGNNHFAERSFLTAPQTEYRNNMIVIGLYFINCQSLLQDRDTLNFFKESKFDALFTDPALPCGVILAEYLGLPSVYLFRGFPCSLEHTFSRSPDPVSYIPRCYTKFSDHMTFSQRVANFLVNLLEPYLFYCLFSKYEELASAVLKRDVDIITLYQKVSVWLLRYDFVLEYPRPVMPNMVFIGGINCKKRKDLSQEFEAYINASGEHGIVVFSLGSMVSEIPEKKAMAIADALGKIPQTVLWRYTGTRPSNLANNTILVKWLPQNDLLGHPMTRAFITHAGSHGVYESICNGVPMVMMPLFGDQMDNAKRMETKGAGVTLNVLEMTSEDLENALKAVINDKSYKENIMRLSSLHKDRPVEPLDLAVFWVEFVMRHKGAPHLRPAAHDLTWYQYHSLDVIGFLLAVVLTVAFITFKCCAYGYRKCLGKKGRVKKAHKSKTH

[2] = type: in vivo, human; details: for Point estimate parameter ratio, AUC / Point estimate parameter ratio, AUC(0‐tlast) / Point estimate parameter ratio, C max: (Molidustat + atazanavir)/molidustat, ANOVA
[3] = Clinical DDI study: safety and tolerability; type: in vivo, human; details: n = 14
[4] = human, cited from earlier work; for absolute oral bioavailability: oral (IR tablet)
UGT2B15 = molecular target: T3, UGT2B15 (Homo sapiens, UniProt P54855); assay: M1 formation from molidustat by recombinant UGT2B15; type: in vitro ADME; details: 1 and 10 µmol L^−1
T3 sequence (P54855 24-530): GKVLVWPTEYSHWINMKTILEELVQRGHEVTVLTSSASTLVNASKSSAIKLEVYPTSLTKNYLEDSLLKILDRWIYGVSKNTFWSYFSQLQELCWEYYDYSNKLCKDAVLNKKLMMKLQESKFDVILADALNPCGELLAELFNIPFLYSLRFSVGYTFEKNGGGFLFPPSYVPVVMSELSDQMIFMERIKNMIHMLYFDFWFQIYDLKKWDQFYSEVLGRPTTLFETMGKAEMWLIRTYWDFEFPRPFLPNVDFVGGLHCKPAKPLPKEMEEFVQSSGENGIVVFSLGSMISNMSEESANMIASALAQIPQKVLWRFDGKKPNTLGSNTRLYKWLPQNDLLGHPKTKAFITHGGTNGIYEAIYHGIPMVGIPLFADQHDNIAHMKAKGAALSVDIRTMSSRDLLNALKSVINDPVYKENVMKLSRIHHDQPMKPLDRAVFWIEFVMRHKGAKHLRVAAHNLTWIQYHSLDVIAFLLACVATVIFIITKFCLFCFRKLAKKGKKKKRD

[5] = tested on: pooled human liver microsomes; assay: Enzyme kinetics of molidustat glucuronidation in pooled human liver microsomes; type: in vitro ADME; details: human liver microsomes, Hill equation
[6] = tested on: UGT-mediated glucuronidation of molidustat; assay: as above; type: in vitro ADME; details: human, pooled human liver microsomes, pH 7.4
HIF‐PH (EC 1.14.11.29) = details: cited from earlier work
UGT1A10 = molecular target: T4, UGT1A10 (Homo sapiens, UniProt Q9HAW8); assay: M1 formation from molidustat by recombinant UGT1A10; type: in vitro ADME; details: 1 and 10 µmol L^−1
T4 sequence (Q9HAW8 26-530): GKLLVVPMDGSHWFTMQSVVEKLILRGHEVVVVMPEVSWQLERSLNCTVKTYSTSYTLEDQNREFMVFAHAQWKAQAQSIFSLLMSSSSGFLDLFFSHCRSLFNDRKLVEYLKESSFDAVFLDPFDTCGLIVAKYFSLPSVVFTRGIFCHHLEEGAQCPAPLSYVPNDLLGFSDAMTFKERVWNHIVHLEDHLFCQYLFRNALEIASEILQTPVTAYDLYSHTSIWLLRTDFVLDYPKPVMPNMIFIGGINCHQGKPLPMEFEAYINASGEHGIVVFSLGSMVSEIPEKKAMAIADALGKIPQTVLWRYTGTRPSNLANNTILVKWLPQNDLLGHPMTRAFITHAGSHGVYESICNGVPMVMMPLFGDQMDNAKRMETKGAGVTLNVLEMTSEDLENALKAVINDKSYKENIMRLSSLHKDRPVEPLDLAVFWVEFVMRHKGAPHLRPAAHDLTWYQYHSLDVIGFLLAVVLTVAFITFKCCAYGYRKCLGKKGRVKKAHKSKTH

[7] = male, human, plasma, oral, 25 mg

Fraction metabolized via total glucuronidation (fm) [1]: ~ 0.9 and 0.9 | activity for glucuronidation of molidustat (UGT2B7): lacked measurable activity | activity for glucuronidation of molidustat (UGT1A6): lacked measurable activity | Point estimate parameter ratio, AUC [2]: 2.0665 | Point estimate parameter ratio, AUC(0‐tlast) [2]: 2.0766 | Point estimate parameter ratio, C max [2]: 2.0689 | Point estimate parameter ratio, AUC ([2]; listed as molidustat): 2.07 and 2 | Point estimate parameter ratio, AUC(0‐tlast) ([2]; listed as molidustat): 2.08 | Point estimate parameter ratio, C max ([2]; listed as molidustat): 2.07 | increase in exposure for molidustat with concomitant atazanavir ([2]; AUC, AUC(0‐t last), C max): approximately 100% | half-life [2, 7]: 6.3 h | t max [2, 7]: 0.75 h | activity for glucuronidation of molidustat (UGT2B15): lacked measurable activity | estimated S50 [5]: 90 µmol/L | Km [6]: 90 µM | activity for glucuronidation of molidustat (UGT1A10): lacked measurable activity
SMILES: O=c1c(-n2ccnn2)c[nH]n1-c1cc(N2CCOCC2)ncn1 [Molidustat]
EPO AUC(0‐24), absolute EPO concentration, arithmetic mean ± SD (EPO): 385 ± 121 IU L^−1*h | EPO AUC(0‐24), absolute EPO concentration, geometric mean/CV% (EPO): 365 IU L^−1*h | EPO C max, difference to baseline, arithmetic mean ± SD (EPO): 12.8 ± 4.02 IU L^−1 | EPO C max, ratio to baseline, arithmetic mean ± SD (EPO): 2.62 ± 0.578 | EPO C max, ratio to baseline, geometric mean/CV% (EPO): 2.56 | Abdominal pain (participants with TEAE) [3]: 0 n (%) | Headache (participants with TEAE) [3]: 0 n (%) | Participants with ≥ 1 TEAE [3]: 0 n (%) | Jaundice (participants with TEAE) ([3]; considered related to atazanavir): 0 n (%) | absolute oral bioavailability [4]: about 60% | absolute oral bioavailability ([4]; listed as molidustat): 59% | fraction of the dose excreted as molidustat via faeces [4]: ~ 6% | fraction of the dose excreted as molidustat via urine [4]: ~ 4% | inhibition of HIF‐PH (HIF‐PH (EC 1.14.11.29)): nanomolar concentration range
